# Results: patent US11572590B2, “Methods for evaluating tumor cell spheroids using 3D microfluidic cell culture device” (Dana-Farber Cancer Institute, Inc., priority 2017, dated 2023)
# Read-outs that look alike come from different tables or passages of the source.
# Legend:
# Assay in all cases: SelectScreen Kinase Profiling, single point inhibition and IC50 for off-target kinases
# Type in all cases: biochemical
# off-target kinases [1] = target: off-target kinases (Homo sapiens, UniProt P09619); details: PDGFRB (PDGFR beta), ZLYTE, ATP Km app
# off-target kinases [2] = target: off-target kinases (Homo sapiens, UniProt Q9HBH9); details: MKNK2 (MNK2), LanthaScreen Binding
# off-target kinases [3] = target: T1, off-target kinases (Homo sapiens, UniProt Q99759); details: MAP3K3 (MEKK3), LanthaScreen Binding
# T1 sequence (Q99759 1-626): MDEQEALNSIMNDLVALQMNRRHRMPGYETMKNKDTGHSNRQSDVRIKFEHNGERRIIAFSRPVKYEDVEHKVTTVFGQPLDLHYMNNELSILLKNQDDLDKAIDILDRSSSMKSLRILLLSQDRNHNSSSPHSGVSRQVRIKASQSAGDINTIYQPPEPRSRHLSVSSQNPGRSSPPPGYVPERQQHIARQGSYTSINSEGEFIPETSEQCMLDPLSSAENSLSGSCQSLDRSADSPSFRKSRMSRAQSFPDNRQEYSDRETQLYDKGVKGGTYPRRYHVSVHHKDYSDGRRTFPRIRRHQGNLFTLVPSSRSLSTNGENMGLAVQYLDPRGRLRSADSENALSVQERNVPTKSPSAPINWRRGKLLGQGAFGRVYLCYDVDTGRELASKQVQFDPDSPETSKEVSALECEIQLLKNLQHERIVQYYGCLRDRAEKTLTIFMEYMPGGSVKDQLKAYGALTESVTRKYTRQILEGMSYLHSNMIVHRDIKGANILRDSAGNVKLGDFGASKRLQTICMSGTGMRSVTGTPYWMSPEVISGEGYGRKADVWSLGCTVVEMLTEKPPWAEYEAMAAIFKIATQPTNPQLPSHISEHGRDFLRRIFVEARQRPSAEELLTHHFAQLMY
# off-target kinases [4] = target: off-target kinases (Homo sapiens, UniProt P12931); details: SRC, ATP Km app, ZLYTE
# off-target kinases [5] = target: off-target kinases (Homo sapiens, UniProt P41279); details: MAP3K8 (COT), ZLYTE, ATP 100
# off-target kinases [6] = target: T2, off-target kinases (Homo sapiens, UniProt Q8IW41); details: MAPKAPK5 (PRAK), ZLYTE, ATP Km app
# T2 sequence (Q8IW41 1-473): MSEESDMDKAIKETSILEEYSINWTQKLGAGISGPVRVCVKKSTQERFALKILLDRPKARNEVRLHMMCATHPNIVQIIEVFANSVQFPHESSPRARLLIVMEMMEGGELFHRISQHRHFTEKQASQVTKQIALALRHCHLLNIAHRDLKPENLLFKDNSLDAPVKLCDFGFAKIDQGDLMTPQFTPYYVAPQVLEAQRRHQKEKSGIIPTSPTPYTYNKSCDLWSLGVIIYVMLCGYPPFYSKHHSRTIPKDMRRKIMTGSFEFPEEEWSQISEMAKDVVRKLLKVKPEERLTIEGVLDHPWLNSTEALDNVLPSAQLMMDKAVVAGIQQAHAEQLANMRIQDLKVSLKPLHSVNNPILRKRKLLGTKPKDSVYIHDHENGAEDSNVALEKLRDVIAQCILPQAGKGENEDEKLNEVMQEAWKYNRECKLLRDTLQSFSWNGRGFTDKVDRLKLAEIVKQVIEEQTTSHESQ
# off-target kinases [7] = target: off-target kinases (Homo sapiens, UniProt P48730); details: CSNK1D (CK1 delta), ZLYTE, ATP Km app
# Sequence of off-target kinases (Homo sapiens, UniProt P48730) (P48730 whole entry): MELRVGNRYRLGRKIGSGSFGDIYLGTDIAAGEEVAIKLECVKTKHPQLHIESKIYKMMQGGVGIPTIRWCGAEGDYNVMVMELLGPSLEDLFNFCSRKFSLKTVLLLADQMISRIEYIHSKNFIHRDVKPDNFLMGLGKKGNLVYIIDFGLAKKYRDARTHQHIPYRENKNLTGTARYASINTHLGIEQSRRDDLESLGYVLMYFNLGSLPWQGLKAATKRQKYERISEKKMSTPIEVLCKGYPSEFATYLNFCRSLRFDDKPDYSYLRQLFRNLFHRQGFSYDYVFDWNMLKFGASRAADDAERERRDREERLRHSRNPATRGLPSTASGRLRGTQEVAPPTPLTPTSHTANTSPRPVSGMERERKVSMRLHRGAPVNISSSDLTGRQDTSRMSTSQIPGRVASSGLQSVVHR
# Sequence of off-target kinases (Homo sapiens, UniProt P12931) (P12931 whole entry): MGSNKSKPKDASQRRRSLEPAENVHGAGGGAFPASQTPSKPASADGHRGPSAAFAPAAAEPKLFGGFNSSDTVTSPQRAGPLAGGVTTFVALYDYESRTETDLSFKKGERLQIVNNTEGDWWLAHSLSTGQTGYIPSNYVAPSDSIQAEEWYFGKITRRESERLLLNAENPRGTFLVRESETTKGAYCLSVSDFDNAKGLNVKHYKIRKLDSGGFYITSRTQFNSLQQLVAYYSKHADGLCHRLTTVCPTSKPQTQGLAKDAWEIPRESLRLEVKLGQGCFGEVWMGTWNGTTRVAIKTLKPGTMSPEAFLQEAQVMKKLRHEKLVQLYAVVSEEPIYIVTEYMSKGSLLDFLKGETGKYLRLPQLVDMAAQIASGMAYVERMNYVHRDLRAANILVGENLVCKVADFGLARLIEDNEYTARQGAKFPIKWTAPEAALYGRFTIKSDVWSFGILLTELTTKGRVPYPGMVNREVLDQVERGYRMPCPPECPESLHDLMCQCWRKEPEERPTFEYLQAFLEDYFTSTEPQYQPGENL
# Sequence of off-target kinases (Homo sapiens, UniProt Q9HBH9) (Q9HBH9 whole entry): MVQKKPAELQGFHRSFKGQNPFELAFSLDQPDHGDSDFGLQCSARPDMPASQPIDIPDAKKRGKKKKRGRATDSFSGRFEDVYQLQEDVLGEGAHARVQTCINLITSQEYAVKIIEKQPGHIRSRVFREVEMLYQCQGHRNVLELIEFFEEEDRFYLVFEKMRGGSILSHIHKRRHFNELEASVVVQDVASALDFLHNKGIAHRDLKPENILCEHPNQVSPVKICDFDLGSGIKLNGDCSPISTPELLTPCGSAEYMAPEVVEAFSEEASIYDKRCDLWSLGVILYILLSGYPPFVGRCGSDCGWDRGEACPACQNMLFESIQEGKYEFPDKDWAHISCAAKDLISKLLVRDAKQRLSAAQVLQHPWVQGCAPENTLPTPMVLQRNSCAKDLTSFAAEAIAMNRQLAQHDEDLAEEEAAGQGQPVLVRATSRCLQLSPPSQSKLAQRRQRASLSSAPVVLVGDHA
# Sequence of off-target kinases (Homo sapiens, UniProt P41279) (P41279 whole entry): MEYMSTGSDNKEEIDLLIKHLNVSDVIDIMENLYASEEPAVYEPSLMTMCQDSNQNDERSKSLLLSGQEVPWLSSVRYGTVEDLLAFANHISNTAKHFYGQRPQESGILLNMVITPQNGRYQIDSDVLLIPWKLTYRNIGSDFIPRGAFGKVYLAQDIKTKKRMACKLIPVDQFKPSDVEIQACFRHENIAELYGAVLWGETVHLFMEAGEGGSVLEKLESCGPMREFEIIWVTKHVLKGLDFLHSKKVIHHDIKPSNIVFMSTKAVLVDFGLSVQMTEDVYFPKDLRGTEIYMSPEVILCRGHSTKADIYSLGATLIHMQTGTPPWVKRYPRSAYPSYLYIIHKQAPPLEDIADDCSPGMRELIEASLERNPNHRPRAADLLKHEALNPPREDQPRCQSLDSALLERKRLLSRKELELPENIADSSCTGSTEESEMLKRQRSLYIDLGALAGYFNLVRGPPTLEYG
# Sequence of off-target kinases (Homo sapiens, UniProt P09619) (P09619 33-1106): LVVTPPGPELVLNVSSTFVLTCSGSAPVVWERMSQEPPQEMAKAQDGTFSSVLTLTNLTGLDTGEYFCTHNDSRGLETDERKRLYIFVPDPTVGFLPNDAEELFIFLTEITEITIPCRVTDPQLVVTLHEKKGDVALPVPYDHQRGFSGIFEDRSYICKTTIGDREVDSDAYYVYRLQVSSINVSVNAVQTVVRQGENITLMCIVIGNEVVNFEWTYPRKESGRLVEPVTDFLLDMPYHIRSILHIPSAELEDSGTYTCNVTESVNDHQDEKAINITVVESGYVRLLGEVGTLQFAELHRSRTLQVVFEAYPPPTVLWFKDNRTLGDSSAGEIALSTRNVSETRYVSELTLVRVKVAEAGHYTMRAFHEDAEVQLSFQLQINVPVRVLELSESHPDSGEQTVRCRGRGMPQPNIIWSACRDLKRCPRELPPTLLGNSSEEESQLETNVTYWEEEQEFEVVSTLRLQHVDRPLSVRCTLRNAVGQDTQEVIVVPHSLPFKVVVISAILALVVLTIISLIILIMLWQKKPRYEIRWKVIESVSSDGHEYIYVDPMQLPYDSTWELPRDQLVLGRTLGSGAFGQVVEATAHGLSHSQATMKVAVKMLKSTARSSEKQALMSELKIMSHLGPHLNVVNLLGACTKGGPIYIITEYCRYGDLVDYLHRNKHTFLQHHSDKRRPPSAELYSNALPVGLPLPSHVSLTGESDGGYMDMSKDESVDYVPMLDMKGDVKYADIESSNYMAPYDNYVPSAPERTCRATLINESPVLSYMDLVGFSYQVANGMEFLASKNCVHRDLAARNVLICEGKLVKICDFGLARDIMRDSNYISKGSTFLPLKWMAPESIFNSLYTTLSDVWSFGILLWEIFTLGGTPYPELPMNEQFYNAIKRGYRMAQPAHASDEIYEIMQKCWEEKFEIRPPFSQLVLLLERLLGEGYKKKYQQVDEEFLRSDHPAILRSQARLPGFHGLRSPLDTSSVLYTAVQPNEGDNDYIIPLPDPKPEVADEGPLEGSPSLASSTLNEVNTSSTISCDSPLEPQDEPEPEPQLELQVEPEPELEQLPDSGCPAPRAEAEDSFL
smiles,measurement,setting,value
"N#Cc1cc(-c2ncnc(Nc3ccc(N4CCN(C5COC5)CC4)cc3)n2)ccc1OC1CCOCC1 [Compound 1, 5-(4-((4-(4-(oxetan-3-yl)piperazin-1-yl)phenyl)amino)-1,3,5-triazin-2-yl)-2-((tetrahydro-2H-pyran-4-yl)oxy)benzonitrile]",inhibition,off-target kinases [1]; read-out: % Inhibition 1,34%
same,inhibition,off-target kinases [1]; read-out: % Inhibition 2,30%
same,inhibition,off-target kinases [1]; read-out: % Inhibition Avg,32%
same,inhibition,off-target kinases [2]; read-out: % Inhibition 1,86%
same,inhibition,off-target kinases [2]; read-out: % Inhibition 2,88%
same,inhibition,off-target kinases [2]; read-out: % Inhibition Avg,87%
same,inhibition,off-target kinases [3]; read-out: % Inhibition 1,10%
same,inhibition,off-target kinases [3]; read-out: % Inhibition 2,13%
same,inhibition,off-target kinases [3]; read-out: % Inhibition Avg,12%
same,inhibition,off-target kinases [4]; read-out: % Inhibition 1,45%
same,inhibition,off-target kinases [4]; read-out: % Inhibition 2,44%
same,inhibition,off-target kinases [4]; read-out: % Inhibition Avg,45%
same,inhibition,off-target kinases [5]; read-out: % Inhibition 1,19%
same,inhibition,off-target kinases [5]; read-out: % Inhibition 2,11%
same,inhibition,off-target kinases [5]; read-out: % Inhibition Avg,15%
same,inhibition,off-target kinases [6]; read-out: % Inhibition 1,6%
same,inhibition,off-target kinases [6]; read-out: % Inhibition 2,7%
same,inhibition,off-target kinases [6]; read-out: % Inhibition Avg,6%
same,inhibition,off-target kinases [7]; read-out: % Inhibition 1,-1%
same,inhibition,off-target kinases [7]; read-out: % Inhibition 2,-5%
same,inhibition,off-target kinases [7]; read-out: % Inhibition Avg,-3%
